Measured values from patent US5750702A (priority 1996, dated 1998).
pKi: −log10 of the molar value.

Each molecule was assayed against GABAa receptor (assay: GABAa receptor binding assay (displacement of 3H-RO15-1788 [3H-Flumazenil], rat cortical tissue)). Settings: Table 2, 0.5 nM 3H-RO15-1788, 30 min at 4° C., nonspecific binding with diazepam.
Protocol: The pharmaceutical utility of compounds of this invention are indicated by the following assay for GABAa receptor binding activity.
Assays are carried out as described in Thomas and Tallman (J. Bio. Chem. 156: 9838-9842 J. Neurosci. 3: 433-440, 1983). Rat cortical tissue is dissected and homogenized in 25 volumes (w/v) of 0.05M Tris HCl buffer (pH 7.4 at 4° C.). The tissue homogenate is centrifuged in the cold (4°) at 20,000×g for 20'. The supernatant is decanted and the pellet is rehomogenized in the same volume of buffer and again centrifuged at 20,000×g. The supernatant is decanted and the pellet is frozen at -20° C. overnight. The pellet is then thawed and rehomogenized in 25 volume (original wt/vol) of buffer and the procedure is carried out twice. The pellet is finally resuspended in 50 volumes (w/vol of 0.05M Tris HCl buffer (pH 7.4 at […]).
Incubations contain […] of tissue homogenate, […] of radioligand 0.5 nM (^3 H-RO15-1788 [^3 H-Flumazenil] specific activity 80 Ci/mmol), drug or blocker and buffer to a total volume of […]. Incubations are carried for 30 min at 4° C. then are rapidly filtered through GFB filters to separate free and bound ligand. Filters are washed twice with fresh 0.05M Tris HCl buffer (pH 7.4 at 4° C.) and counted in a liquid scintillation counter. 1.0 mM diazepam is added to some tubes to determine nonspecific binding. Data are collected in triplicate determinations, averaged and % inhibition of total specific binding is calculated. Total Specific Binding=Total-Nonspecific. In some cases, the amounts of unlabeled drugs is varied and total displacement curves of binding are carried out. Data are converted to Ki values.

Row | Structure (SMILES) | pKi
1 | COc1ccc(NC(=O)c2c[nH]c3c2C(=O)CCC3)cc1 [Compound 1, N-(4-methoxyphenyl)-4-oxo-4,5,6,7-tetrahydro-1H-indole-3-carboxamide] | 8.40
2 | COc1ccc(NC(=O)c2c[nH]c3cccc(O)c23)c(F)c1 [Compound 2, N-(2-fluoro-4-methoxyphenyl)-4-hydroxy-1H-indole-3-carboxamide] | 6.37
3 | COc1ccc(NC(=O)c2c[nH]c3c2C(=O)CCC3)c(F)c1 [Compound 6, N-(2-Fluoro-4-methoxyphenyl)-4-oxo-4,5,6,7-tetrahydro-1H-indole-3-carboxamide] | 9.00
4 | COc1ccc(NC(=O)c2c[nH]c3cccc(OC)c23)cc1 [Compound 8, N-(4-Methoxyphenyl)-4-methoxy-1H-indole-3-carboxamide] | 7.60
5 | CC(=O)Nc1ccc(NC(=O)c2c[nH]c3c2C(=O)CCC3)cc1 [Compound 12, N-(4-Acetamidophenyl)-4-oxo-4,5,6,7-tetrahydro-1H-indole-3-carboxamide] | 7.55
6 | COc1ccc(NC(=O)c2c[nH]c3cccc(OCc4ccccc4)c23)c(F)c1 [Compound 14, N-(2-Fluoro-4-methoxyphenyl)-4-benzyloxy-1H-indole-3-carboxamide] | 6.88

Same assay, conditions: Table 3, 0.5 nM 3H-RO15-1788, 30 min at 4° C., nonspecific binding with diazepam

Row | Structure (SMILES) | pKi
7 | CC(C)Oc1ccc(NC(=O)c2c[nH]c3c2C(=O)CCC3)cc1 [Compound 22, N-(4-Isopropoxyphenyl)-4-oxo-4,5,6,7-tetrahydro-1H-indole-3-carboxamide] | 7.28
8 | COc1ccc(NC(=O)c2c[nH]c3c2C(=O)CCC3)cc1F [Compound 26, N-(3-Fluoro-4-methoxyphenyl)-4-oxo-4,5,6,7-tetrahydro-1H-indole-3-carboxamide] | 8.52
9 | COc1ccc(NC(=O)c2c[nH]c3c2C(=O)C(C)(C)CC3)c(F)c1 [Compound 30, N-(2-Fluoro-4-methoxyphenyl)-4-oxo-5,5-dimethyl-4,5,6,7-tetrahydro-1H-indole-3-carboxamide] | 8.00
10 | O=C(Nc1ccccc1)c1c[nH]c2c1C(=O)CCC2 [Compound 35, N-Phenyl-4-oxo-4,5,6,7-tetrahydro-1H-indole-3-carboxamide] | 8.70
11 | O=C(Nc1ccccc1F)c1c[nH]c2c1C(=O)CCC2 [Compound 46, N-(2-Fluorophenyl)-4-oxo-4,5,6,7-tetrahydro-1H-indole-3-carboxamide] | 8.52
12 | O=C(Nc1ccccc1O)c1c[nH]c2c1C(=O)CCC2 [Compound 62, N-(2-Hydroxyphenyl)-4-oxo-4,5,6,7-tetrahydro-1H-indole-3-carboxamide] | 9.10
13 | Cc1ccc(NC(=O)c2c[nH]c3c2C(=O)CCC3)c(F)c1 [Compound 72, N-(2-Fluoro-4-methylphenyl)-4-oxo-4,5,6,7-tetrahydro-1H-indole-3-carboxamide] | 7.59
14 | CNc1ccc(NC(=O)c2c[nH]c3c2C(=O)CCC3)cc1 [Compound 74, N-[4-(Methylamino)phenyl]-4-oxo-4,5,6,7-tetrahydro-1H-indole-3-carboxamide] | 7.74
15 | CC1(C)CCc2[nH]cc(C(=O)Nc3ccccc3)c2C1=O [Compound 80, N-Phenyl-4-oxo-5,5-dimethyl-4,5,6,7-tetrahydro-1H-indole-3-carboxamide] | 7.51
16 | CC1(C)CCc2[nH]cc(C(=O)Nc3ccccc3F)c2C1=O [Compound 81, N-(2-Fluorophenyl)-4-oxo-5,5-dimethyl-4,5,6,7-tetrahydro-1H-indole-3-carboxamide] | 7.85
17 | CC1(C)CCc2[nH]cc(C(=O)Nc3ccc(O)cc3)c2C1=O [Compound 86, N-(4-Hydroxyphenyl)-4-oxo-5,5-dimethyl-4,5,6,7-tetrahydro-1H-indole-3-carboxamide] | 8.70
18 | O=C(Nc1ccccc1F)c1c[nH]c2c1C(=O)CCCC2 [Compound 93, N-(2-Fluorophenyl)-4-oxo-1,4,5,6,7,8-hexahydro-cyclohepta[b]pyrrole-3-carboxamide] | 8.22
19 | COc1cccc(NC(=O)c2c[nH]c3c2C(=O)CCCC3)c1 [Compound 96, N-(3-Methoxyphenyl)-4-oxo-1,4,5,6,7,8-hexahydro-cyclohepta[b]pyrrole-3-carboxamide] | 7.54
20 | CCOc1ccc(NC(=O)c2c[nH]c3c2C(=O)CCCC3)c(F)c1 [Compound 102, N-(2-Fluoro-4-ethoxyphenyl)-4-oxo-1,4,5,6,7,8-hexahydro-cyclohepta[b]pyrrole-3-carboxamide] | 7.43
